Test results as given in paper PMC7287882, “Dual miRNases for Triple Incision of miRNA Target: Design Concept and Catalytic Performance” (Molecules, 2020).

Experiments:
[1] = tested on: miR-17; experiment: Ribonuclease activity assay at different concentrations of KCl; assay type: biochemical; details: miRNA 1 µM, DC 20 µM, 37 °C, 48 h; for Cleavage: 20 mM Tris-HCl pH 7.8, 8 mM MgCl2, 1 mM DTT, 0.02 mg/mL BSA, mean ± s.e.
Method: Potassium ions play an important role in the regulation of cell homeostasis by maintaining the membrane potential, cell volume and pH, and may also have an influence on the performance of artificial ribonucleases. […] In order to understand the effect of K^+ ions on the efficiency of miRNA cleavage by DCs, miR-17 was incubated with the matching DC in the buffer containing 50 mM Tris-HCl, pH 7.0, 1 mM DTT, 0.02 mg/mL BSA and different K^+ concentration varied from 0 to 400 mM. […] In the absence of potassium and at a concentration of more than 200 mM, the efficiency of miRNA cleavage was 2-fold reduced.
Reaction with different concentration of KCl was performed in reaction mixtures (8 µL) containing 320 cpm (Cherenkov’s counting) of [^32P]-miR-17, 1 μM unlabeled miRNA, 20 µM of miRNA-17-DC in buffers contained 20 mM Tris-HCl, pH 7.8, 8 mM MgCl2, 1 mM DTT, 0.02 mg/mL BSA, and KCl at concentration 0, 40, 100, 200 or 400 mM at 37 °C for 48 h. RNA cleavage products were collected and analyzed as described above.

[2] = tested on: miR-21; experiment: Gel-retardation assay, hybridization with miR-21; assay type: binding; details: 37 °C, 45 min, mean of 3
Source text: We carried out a comparative analysis of the hybridization properties of the developed DCs with the corresponding SCs, which were the products of the first stage of the DCs synthesis. As discussed above, each SC consisted of the corresponding oligonucleotide A, which was complementary to the 5′-region of the matching miRNA target, and the catalytic peptide [LRLRG]2, attached to the 5′-end of this oligonucleotide via a thiohexyl linker (linker 2). […] Indeed, the level of binding of DCs to their miRNA targets reached 96, 90, 75, 55% at equimolar concentration (1 μM), and 99, 96, 92 and 69% at 5-fold excess of DCs over miR-17, miR-18a, miR-21 and miR-155, respectively (Figure 2). […]
The reaction mixture (4 µL) containing 50 mM Tris-HCl, pH 7.0, 200 mM KCl and 1 mM EDTA, 100 cpm (Cherenkov’s counting) of [^32P]-miRNA, 1 μM unlabeled miRNA, a conjugate at a concentration ranging from 0.1 to 10 μM was incubated at 37 °C for 45 min and quenched by adding of a loading buffer (20% ficoll, 0.025% bromophenol blue, 0.025% xylene cyanol). […] Formation of the complex miRNA/conjugate was analyzed by electrophoresis in 15% native PAAG at 4 °C. The gels were analyzed using Molecular Imager FX. The extent of binding of conjugate to miRNA was determined as a ratio of radioactivity measured in the complex to the total radioactivity applied onto the gel lane.

Substance	Cleavage ([1]; K+ 0 mM) [%]	Cleavage ([1]; K+ 40 mM) [%]	Cleavage ([1]; K+ 100 mM) [%]	Cleavage ([1]; K+ 200 mM) [%]	Cleavage ([1]; K+ 400 mM) [%]	most potent degradation of miRNA-target ([1]; at 40–100 mM KCl)	level of binding of DC to miRNA target ([2]; 5-fold excess of DC over miRNA (1 µM), same buffer) [%]	level of binding of DC to miRNA target ([2]; equimolar, DC 1 µM : miRNA 1 µM, 50 mM Tris-HCl pH 7.0, 200 mM KCl, 1 mM EDTA) [%]
CTACCTGC–linker 1–[GRLRL]2–linker 2–AAGCACTTTG [miRNA-17-DC, Dual oligonucleotide-peptide conjugate targeted to miR-17: catalytic peptide [LRLRG]2 between two 2-aminoadenine-containing oligodeoxyribonucleotides]	13.2±5.0	22.5±4.3	26.4±2.0	13.7±3.5	14.1±3.8	approximately 25%	–	–
TCAACATC–linker 1–[GRLRL]2–linker 2–GATAAGCTA [miRNA-21-DC, Dual oligonucleotide-peptide conjugate targeted to miR-21: catalytic peptide [LRLRG]2 between two 2-aminoadenine-containing oligodeoxyribonucleotides]	–	–	–	–	–	–	92	75
